Test results as given in ChEMBL document CHEMBL2424518, “Phosphodiesterase inhibitors. Part 6: design, synthesis, and structure-activity relationships of PDE4-inhibitory pyrazolo[1,5-a]pyridines with anti-inflammatory activity” (Bioorg Med Chem Lett, 2013).
Active and inactive are the calls of the source. No cut-off for these calls is given here.

Experiments:
[1] = target: 3',5'-cyclic-AMP phosphodiesterase 4B (Homo sapiens, UniProt Q07343); assay: Inhibition of core catalytic domains PDE4B (unknown origin)
Rattus norvegicus [2] = assay: Antiinflammatory activity in LPS-stimulated rat assessed as total number of leukocytes in bronchoalveolar lavage fluid at 3 mg/kg, po administered 1 hr before LPS challenge measured after 3 hrs; type: functional, Lung
[3] = target: T1, cGMP-inhibited 3',5'-cyclic phosphodiesterase 3A (Homo sapiens, UniProt Q14432); assay: Inhibition of core catalytic domains PDE3A (unknown origin) at 100 uM
Rattus norvegicus [4] = assay: Antiinflammatory activity in LPS-stimulated rat assessed as total number of leukocytes in bronchoalveolar lavage fluid at 10 mg/kg, po administered 1 hr before LPS challenge measured after 3 hrs; type: functional, Lung
[5] = target: T1, cGMP-inhibited 3',5'-cyclic phosphodiesterase 3A; assay: Inhibition of core catalytic domains PDE3A (unknown origin)
Rattus norvegicus [6] = assay: Antiinflammatory activity in LPS-stimulated rat assessed as total number of leukocytes in bronchoalveolar lavage fluid at 1 mg/kg, po administered 1 hr before LPS challenge measured after 3 hrs; type: functional, Lung

T1 sequence (Q14432 whole entry, the tested form may be a part): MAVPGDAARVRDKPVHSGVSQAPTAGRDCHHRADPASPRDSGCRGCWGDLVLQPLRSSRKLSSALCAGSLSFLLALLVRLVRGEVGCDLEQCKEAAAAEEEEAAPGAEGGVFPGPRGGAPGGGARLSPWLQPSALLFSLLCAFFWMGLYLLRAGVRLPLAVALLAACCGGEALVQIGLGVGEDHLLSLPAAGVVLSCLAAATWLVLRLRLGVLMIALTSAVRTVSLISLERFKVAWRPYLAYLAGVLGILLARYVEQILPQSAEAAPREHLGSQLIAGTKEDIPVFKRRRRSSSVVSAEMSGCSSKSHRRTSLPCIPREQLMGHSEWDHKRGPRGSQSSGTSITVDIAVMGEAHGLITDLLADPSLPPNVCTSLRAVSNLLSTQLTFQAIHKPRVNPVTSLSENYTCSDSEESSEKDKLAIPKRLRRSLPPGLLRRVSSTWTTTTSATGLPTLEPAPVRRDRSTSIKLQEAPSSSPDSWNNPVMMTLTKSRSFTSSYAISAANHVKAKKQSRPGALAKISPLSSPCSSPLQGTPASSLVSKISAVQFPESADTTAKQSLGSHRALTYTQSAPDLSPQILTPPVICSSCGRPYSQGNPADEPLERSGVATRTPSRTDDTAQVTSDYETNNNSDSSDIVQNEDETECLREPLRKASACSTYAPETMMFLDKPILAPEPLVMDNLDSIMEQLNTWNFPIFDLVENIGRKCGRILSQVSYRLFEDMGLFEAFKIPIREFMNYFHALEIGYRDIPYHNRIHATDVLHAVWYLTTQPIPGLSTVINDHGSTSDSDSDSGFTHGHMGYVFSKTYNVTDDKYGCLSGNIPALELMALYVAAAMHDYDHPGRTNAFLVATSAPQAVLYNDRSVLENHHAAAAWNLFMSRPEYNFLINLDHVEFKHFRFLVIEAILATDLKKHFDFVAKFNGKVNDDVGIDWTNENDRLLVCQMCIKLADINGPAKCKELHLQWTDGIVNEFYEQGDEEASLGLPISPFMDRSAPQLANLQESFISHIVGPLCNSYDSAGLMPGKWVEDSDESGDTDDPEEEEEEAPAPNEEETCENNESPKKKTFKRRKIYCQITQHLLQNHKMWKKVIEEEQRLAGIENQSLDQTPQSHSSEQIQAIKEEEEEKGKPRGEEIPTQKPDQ
Chain of 3',5'-cyclic-AMP phosphodiesterase 4B (Q07343 whole entry, the tested form may be a part): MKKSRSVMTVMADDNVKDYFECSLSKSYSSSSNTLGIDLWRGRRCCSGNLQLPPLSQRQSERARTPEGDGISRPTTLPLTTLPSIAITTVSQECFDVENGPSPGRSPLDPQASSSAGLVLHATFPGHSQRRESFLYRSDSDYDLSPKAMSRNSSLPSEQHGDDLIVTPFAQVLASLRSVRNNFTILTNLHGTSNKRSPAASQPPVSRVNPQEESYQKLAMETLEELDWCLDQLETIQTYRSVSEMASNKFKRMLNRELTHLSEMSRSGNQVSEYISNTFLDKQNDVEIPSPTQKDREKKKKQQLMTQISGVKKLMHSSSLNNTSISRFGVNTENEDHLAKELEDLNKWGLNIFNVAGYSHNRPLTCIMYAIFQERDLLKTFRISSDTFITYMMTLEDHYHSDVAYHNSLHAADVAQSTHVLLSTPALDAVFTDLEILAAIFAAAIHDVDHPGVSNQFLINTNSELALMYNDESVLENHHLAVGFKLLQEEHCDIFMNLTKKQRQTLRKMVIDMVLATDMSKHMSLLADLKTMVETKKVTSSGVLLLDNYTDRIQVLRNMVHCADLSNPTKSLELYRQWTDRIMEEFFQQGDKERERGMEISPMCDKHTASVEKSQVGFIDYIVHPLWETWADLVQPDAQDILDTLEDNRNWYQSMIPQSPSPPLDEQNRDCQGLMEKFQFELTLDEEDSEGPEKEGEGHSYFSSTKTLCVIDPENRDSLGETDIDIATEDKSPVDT

COc1ccc(C(=O)Nc2c(Cl)c[n+]([O-])cc2Cl)c2cc(C(F)(F)F)nn12
IC50 [1]: 0.0015 µM
Activity (Rattus norvegicus [2]): 77%
inhibition [3]: inactive

O=C(Nc1c(Cl)cncc1Cl)c1ccc(OC(F)F)c(OCC2CC2)c1 [ROFLUMILAST]
Activity (Rattus norvegicus [4]): 59%
IC50 [5]: > 100 µM

CNc1ccc(C(=O)Nc2c(Cl)cncc2Cl)c2cc(C(F)(F)F)nn12
IC50 [1]: 0.00019 µM
Activity (Rattus norvegicus [2]): 33%
inhibition [3]: inactive

COCc1ccc(C(=O)Nc2c(Cl)cncc2Cl)c2cc(C(F)(F)F)nn12
IC50 [1]: 0.0045 µM
Activity (Rattus norvegicus [2]): 31%
inhibition [3]: inactive

CCc1cc2c(C(=O)Nc3c(Cl)cncc3Cl)ccc(OC)n2n1
IC50 [1]: 0.007 µM
Activity (Rattus norvegicus [2]): 53%
IC50 [5]: > 100 µM

COc1ccc(C(=O)Nc2c(Cl)c[n+]([O-])cc2Cl)c2cc(C(C)C)nn12
Activity (Rattus norvegicus [4]): 63%
IC50 [1]: 0.01 µM
inhibition [3]: inactive

COc1ccc(C(=O)Nc2c(Cl)cncc2Cl)c2cc(C(C)=O)nn12
IC50 [1]: 0.0029 µM
Activity (Rattus norvegicus [2]): 41%
IC50 [5]: > 100 µM

COc1ccc(C(=O)Nc2c(Cl)cncc2Cl)c2cc(C(=O)O)nn12
IC50 [1]: 0.55 µM
inhibition [3]: inactive

COc1cccc2c(C(=O)Nc3c(Cl)cncc3Cl)c(C(F)(F)F)nn12
IC50 [1]: 6.13 µM
inhibition [3]: inactive

COc1ccc(C(=O)C(=O)c2ccncc2)c2cc(C(F)(F)F)nn12
IC50 [1]: 1.26 µM
inhibition [3]: inactive

CC(O)c1ccc(C(=O)Nc2c(Cl)cncc2Cl)c2cc(C(F)(F)F)nn12 (centres undefined)
IC50 [1]: 0.008 µM
Activity (Rattus norvegicus [2]): 59%
IC50 [5]: > 100 µM

COc1ccc(Cc2ccncc2)c2cc(C(F)(F)F)nn12
IC50 [1]: 0.57 µM
IC50 [5]: > 100 µM

COc1ccc(/C=C/c2c(Cl)cncc2Cl)c2cc(C(F)(F)F)nn12
IC50 [1]: 0.0055 µM
Activity (Rattus norvegicus [2]): 39%
inhibition [3]: inactive

COc1ccc(C(=O)Nc2c(Cl)cncc2Cl)c2cc(C(F)(F)F)nn12
Activity (Rattus norvegicus [6]): 60%
IC50 [1]: 0.00027 µM
inhibition [3]: inactive

CC(=O)c1ccc(C(=O)Nc2c(Cl)cncc2Cl)c2cc(C(F)(F)F)nn12
IC50 [1]: 0.021 µM
Activity (Rattus norvegicus [2]): 43%
inhibition [3]: inactive

COCc1cc2c(C(=O)Nc3c(Cl)cncc3Cl)ccc(OC)n2n1
Activity (Rattus norvegicus [6]): 54%
IC50 [1]: 0.013 µM
inhibition [3]: inactive

COc1ccc(C(=O)Nc2c(Cl)cncc2Cl)c2cc(C(C)C)nn12
IC50 [1]: 0.11 µM
Activity (Rattus norvegicus [2]): 64%
inhibition [3]: inactive

COc1ccc(CCc2ccncc2)c2cc(C(F)(F)F)nn12
IC50 [1]: 0.0049 µM
Activity (Rattus norvegicus [2]): 55%
inhibition [3]: inactive

O=C(Nc1c(Cl)cncc1Cl)c1ccc(CO)n2nc(C(F)(F)F)cc12
IC50 [1]: 0.031 µM
Activity (Rattus norvegicus [2]): 26%
inhibition [3]: inactive

COc1ccc(C(=O)Nc2c(Cl)cncc2Cl)c2ccnn12
IC50 [1]: 0.039 µM
Activity (Rattus norvegicus [2]): 0%
IC50 [5]: > 100 µM

COc1ccc(C(=O)Nc2c(Cl)cncc2Cl)c2cc(C(C)O)nn12 (centres undefined)
IC50 [1]: 0.083 µM
Activity (Rattus norvegicus [2]): 60%
inhibition [3]: inactive

COc1ccc(/C=C/c2ccncc2)c2cc(C(F)(F)F)nn12
IC50 [1]: 0.015 µM
Activity (Rattus norvegicus [2]): 57%
IC50 [5]: 67.1 µM

COc1ccc(C(O)c2ccncc2)c2cc(C(F)(F)F)nn12 (centres undefined)
IC50 [1]: 10.2 µM
inhibition [3]: inactive

COc1ccc(C(=O)Nc2c(Cl)c[n+]([O-])cc2Cl)c2cc(C3CC3)nn12
Activity (Rattus norvegicus [6]): 62%
IC50 [1]: 0.0028 µM
inhibition [3]: inactive

COc1ccc(NC(=O)c2c(Cl)cncc2Cl)c2cc(C(F)(F)F)nn12
IC50 [1]: 0.24 µM
inhibition [3]: inactive

COc1ccc(C(=O)c2ccncc2)c2cc(C(F)(F)F)nn12
IC50 [1]: 0.98 µM
inhibition [3]: inactive

COc1ccc(C(=O)Nc2c(Cl)c[n+]([O-])cc2Cl)c2ccnn12
IC50 [1]: 0.0027 µM
Activity (Rattus norvegicus [2]): 57%
inhibition [3]: inactive

COc1ccc(C(O)Cc2ccncc2)c2cc(C(F)(F)F)nn12 (centres undefined)
IC50 [1]: 0.75 µM
inhibition [3]: inactive

COc1ccc(C(=O)Nc2c(Cl)cncc2Cl)c2cc(C(F)F)nn12
IC50 [1]: 0.0002 µM
Activity (Rattus norvegicus [2]): 32%
inhibition [3]: inactive

COc1ccc(C(=O)Cc2ccncc2)c2cc(C(F)(F)F)nn12
IC50 [1]: 0.0094 µM
inhibition [3]: inactive

COc1ccc(C(=O)Nc2c(Cl)cncc2Cl)c2cc(C#N)nn12
IC50 [1]: 0.0041 µM
Activity (Rattus norvegicus [2]): 66%
IC50 [5]: > 100 µM

COc1ccc(C2=NNC(=O)CC2C)c2cc(C(F)(F)F)nn12 (single isomer, unassigned; (-))
Activity (Rattus norvegicus [6]): 79%

COc1ccc(C(=O)Nc2c(Cl)c[n+]([O-])cc2Cl)c2cc(C#N)nn12
IC50 [1]: 0.022 µM
Activity (Rattus norvegicus [2]): 61%
inhibition [3]: inactive

COc1ccc(C(=O)Nc2c(Cl)cncc2Cl)c2cc(/C=N/O)nn12
IC50 [1]: 0.0051 µM
Activity (Rattus norvegicus [2]): 41%
IC50 [5]: > 100 µM

COCc1cc2c(C(=O)Nc3c(Cl)c[n+]([O-])cc3Cl)ccc(OC)n2n1
IC50 [1]: 0.05 µM
Activity (Rattus norvegicus [2]): 18%
inhibition [3]: inactive

COc1ccc(CNc2c(Cl)cncc2Cl)c2cc(C(F)(F)F)nn12
IC50 [1]: 0.15 µM
IC50 [5]: 71.4 µM

COc1ccc(C(=O)Cc2c(Cl)cncc2Cl)c2cc(C(F)(F)F)nn12
Activity (Rattus norvegicus [4]): 87%
IC50 [1]: 0.0029 µM
inhibition [3]: inactive

COc1cccc2c(C(=O)Nc3c(Cl)c[n+]([O-])cc3Cl)c(C(F)(F)F)nn12
IC50 [1]: 16.6 µM
inhibition [3]: inactive

CCc1cc2c(C(=O)Nc3c(Cl)c[n+]([O-])cc3Cl)ccc(OC)n2n1
IC50 [1]: 0.0094 µM
Activity (Rattus norvegicus [2]): 40%
inhibition [3]: inactive

COc1ccc(C(=O)Nc2c(Cl)cncc2Cl)c2cc(C3CC3)nn12
IC50 [1]: 0.00051 µM
Activity (Rattus norvegicus [2]): 71%
IC50 [5]: > 100 µM

COc1ccc(C(=O)Nc2c(Cl)cncc2Cl)c2cc(C=O)nn12
IC50 [1]: 0.0098 µM
Activity (Rattus norvegicus [2]): 64%
inhibition [3]: inactive

COc1ccc(C(O)Cc2c(Cl)cncc2Cl)c2cc(C(F)(F)F)nn12 (centres undefined)
IC50 [1]: 0.039 µM
inhibition [3]: inactive

CSc1ccc(C(=O)Nc2c(Cl)cncc2Cl)c2cc(C(F)(F)F)nn12
IC50 [1]: 0.00011 µM
Activity (Rattus norvegicus [2]): 52%
IC50 [5]: > 100 µM
